Patent US12685773B2 (priority 2020, dated 2026)

Legend:
relapsed/refractory HL = conditions: cited from earlier work
[1] = 9 patients evaluated at 6 weeks after infusion
[2] = 3 patients did not have data at 3 months
[3] = AE of special interest, classical HL patients
[4] = Grade 3 or higher AE, classical HL patients
[5] = not resolved by Day 28, classical HL patients

Compound: cyclophosphamide and fludarabine
- CR (relapsed/refractory HL; [1]): 66.6%
- ORR (relapsed/refractory HL; [1]): 66.6%
- PD (relapsed/refractory HL; [1]): 33.3%
- disease progression: patients (relapsed/refractory HL; out of 9 patients evaluated at 6 weeks after infusion): 3
- CR: patients (relapsed/refractory HL; out of 9 patients evaluated at 6 weeks after infusion, cyclophosphamide 500 mg/m^2 and fludarabine 30 mg/m^2 daily for 3 days): 6

Compound: Cn1c(CCCC(=O)O)nc2cc(N(CCCl)CCCl)ccc21 [Benda]
- Prolonged Grade 3/4 Anemia (at month 3): n [2]: 0
- Prolonged Grade 3/4 Neutropenia (at month 3): n [2]: 0
- Prolonged Grade 3/4 Thrombocytopenia (at month 3): n [2]: 0
- Cytokine Release Syndrome (all Grade 1): % [3]: (13) %
- Cytokine Release Syndrome (all Grade 1): n [3]: 1
- Anemia: n [4]: 0
- Dyspnea: n [4]: 0
- Headache: n [4]: 0
- Hypoalbuminemia: n [4]: 0
- Hyponatremia: n [4]: 0
- Leukopenia: % [4]: (38) %
- Leukopenia: n [4]: 3
- Lung Infection: n [4]: 0
- Lymphopenia: % [4]: (100) %
- Lymphopenia: n [4]: 8
- Neutropenia: % [4]: (25) %
- Neutropenia: n [4]: 2
- Pharyngitis: n [4]: 0
- Rash: n [4]: 0
- Thrombocytopenia: % [4]: (13) %
- Thrombocytopenia: n [4]: 1
- Grade 3/4 Anemia at day 28: n (classical HL patients): 0
- Rash (Any Grade): % (classical HL patients): (25) %
- Rash (Any Grade): n (classical HL patients, maculopapular skin rash): 2
- Grade 3/4 Neutropenia at day 28: n [5]: 0
- Grade 3/4 Thrombocytopenia at day 28: n [5]: 0
